Results: publication PMC2631652 (Current biology : CB, 2008)

Target: T1, ClC-3 (long-ClC-3A) (Homo sapiens, UniProt P51790)
T1 sequence (P51790 1-818): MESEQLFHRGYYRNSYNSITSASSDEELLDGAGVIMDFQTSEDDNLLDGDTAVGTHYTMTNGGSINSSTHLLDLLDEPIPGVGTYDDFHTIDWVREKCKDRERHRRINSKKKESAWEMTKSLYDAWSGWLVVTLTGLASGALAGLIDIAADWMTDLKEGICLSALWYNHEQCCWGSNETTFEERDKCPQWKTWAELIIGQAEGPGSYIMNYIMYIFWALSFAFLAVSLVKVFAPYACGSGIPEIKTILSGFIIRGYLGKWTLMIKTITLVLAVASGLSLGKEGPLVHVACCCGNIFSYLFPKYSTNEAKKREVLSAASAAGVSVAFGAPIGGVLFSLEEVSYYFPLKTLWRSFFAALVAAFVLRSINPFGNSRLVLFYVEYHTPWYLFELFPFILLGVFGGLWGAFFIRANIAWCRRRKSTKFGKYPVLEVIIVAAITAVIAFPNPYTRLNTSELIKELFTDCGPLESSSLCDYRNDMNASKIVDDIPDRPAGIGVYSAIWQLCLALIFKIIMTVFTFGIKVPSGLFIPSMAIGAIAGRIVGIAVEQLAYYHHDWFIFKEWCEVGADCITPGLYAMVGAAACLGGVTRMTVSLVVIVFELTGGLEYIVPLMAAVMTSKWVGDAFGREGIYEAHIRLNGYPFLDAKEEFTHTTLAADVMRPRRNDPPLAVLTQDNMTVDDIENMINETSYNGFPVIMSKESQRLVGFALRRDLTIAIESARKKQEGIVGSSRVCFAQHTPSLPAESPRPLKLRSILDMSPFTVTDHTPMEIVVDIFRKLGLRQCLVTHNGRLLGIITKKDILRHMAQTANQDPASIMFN
Test: whole-cell patch clamp, inhibitor in pipette
Format: cell-based

IC50: 4.6 µM
Compound: O=P(O)(O)O[C@H]1[C@H](OP(=O)(O)O)[C@@H](OP(=O)(O)O)[C@@H](O)[C@@H](O)[C@@H]1OP(=O)(O)O [Ins(3,4,5,6)P4]
